Article PMC11266321 (EJNMMI Radiopharmacy and Chemistry, 2024)

Key:
[1] = target: T1, Adenosine A1 (Homo sapiens, UniProt P30542); experiment: Radioligand binding inhibition, Adenosine A1; conditions: 10 µM; radioligand [^3H]DPCPX; mean of duplicate
T1 construct: Sekisui Medical (contract laboratory)
Experimental: (§1) Interaction of MMP with 28 binding sites was examined, including major classes of neurotransmitter receptor, uptake system, and ion channels (Sekisui Medical, Naka, Japan). MMP was tested in all assays at 10 µM. […] Each determination was made in duplicate.
(§2) Test substance concentration : 10 µM, positive substance concentration : 10 µM
(§3) Data are expressed as the mean values of duplicate samples.
(§4) The % inhibition was calculated from “100 – binding ratio”.
(§5) Binding ratio: [(B - N) / (B0 - N)] × 100 (%)
(§6) B: Bound radioactivity in the presence of test substance and positive substance (individual value)
(§7) B0: Total bound radioactivity in the absence of test substance and positive substance (mean value)
(§8) N: Non-specific bound radioactivity (mean value)

[2] = test system: α1-Adrenergic (non-selective); experiment: Radioligand binding inhibition, α1-Adrenergic; conditions: 10 µM; radioligand [^3H]Prazosin; mean of duplicate
[3] = test system: α2-Adrenergic (non-selective); experiment: Radioligand binding inhibition, α2-Adrenergic; conditions: 10 µM; radioligand [^3H]Rauwolscine; mean of duplicate
Experimental: (§9) Interaction of MMP with 28 binding sites was examined, including major classes of neurotransmitter receptor, uptake system, and ion channels (Sekisui Medical, Naka, Japan). MMP was tested in all assays at 10 µM. […] 10.2.3 (GraphPad Software, San Diego, CA). Each determination was made in duplicate.
as §2, §3, §4, §5, §6, §7, §8

[4] = target: T2, Dopamine D2 (Homo sapiens, UniProt P14416); experiment: Radioligand binding inhibition, Dopamine D2; conditions: 10 µM; radioligand [^3H]Spiperone; mean of duplicate
T2 construct: Sekisui Medical (contract laboratory)
T2 sequence (P14416 whole entry): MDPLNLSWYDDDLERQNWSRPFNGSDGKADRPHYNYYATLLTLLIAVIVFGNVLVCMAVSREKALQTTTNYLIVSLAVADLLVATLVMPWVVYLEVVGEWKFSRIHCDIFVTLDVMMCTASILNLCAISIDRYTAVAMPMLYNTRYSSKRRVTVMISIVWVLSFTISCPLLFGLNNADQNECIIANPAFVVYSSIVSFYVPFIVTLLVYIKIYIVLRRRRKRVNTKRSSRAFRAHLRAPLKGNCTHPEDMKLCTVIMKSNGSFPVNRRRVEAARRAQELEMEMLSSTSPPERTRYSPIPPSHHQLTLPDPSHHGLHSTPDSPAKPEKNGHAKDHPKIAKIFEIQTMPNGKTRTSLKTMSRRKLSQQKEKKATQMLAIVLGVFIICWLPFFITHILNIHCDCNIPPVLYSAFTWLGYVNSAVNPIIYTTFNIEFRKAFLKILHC
Experimental: as §9, §2, §3, §4, §5, §6, §7, §8

[5] = test system: Glutamate (NMDA phencyclidine site); experiment: Radioligand binding inhibition, Glutamate NMDA phencyclidine site; conditions: 10 µM; radioligand [^3H]MK-801; mean of duplicate
Experimental: as §9, §2, §3, §4, §5, §6, §7, §8

[6] = test system: Glycine (strychnine site); assay type: binding; conditions: 10 µM; radioligand [^3H]Strychine; mean of duplicate
[7] = target: T3, Histamine H2 (Homo sapiens, UniProt P25021); experiment: Radioligand binding inhibition, Histamine H2; conditions: 10 µM; radioligand [^125I]Iodoaminopotentidine; mean of duplicate
T3 construct: Sekisui Medical (contract laboratory)
T3 sequence (P25021 whole entry): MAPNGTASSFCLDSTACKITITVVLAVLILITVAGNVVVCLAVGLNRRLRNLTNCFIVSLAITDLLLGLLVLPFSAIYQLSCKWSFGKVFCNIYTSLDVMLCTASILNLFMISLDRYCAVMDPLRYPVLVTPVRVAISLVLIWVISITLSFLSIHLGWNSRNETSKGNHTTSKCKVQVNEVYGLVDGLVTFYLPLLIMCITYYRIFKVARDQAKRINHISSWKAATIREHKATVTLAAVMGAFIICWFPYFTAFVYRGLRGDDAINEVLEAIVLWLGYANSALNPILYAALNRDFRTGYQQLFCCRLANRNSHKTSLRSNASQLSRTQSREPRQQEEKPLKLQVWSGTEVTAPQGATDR
Experimental: as §9, §2, §3, §4, §5, §6, §7, §8

[8] = target: T4, Histamine H3 (Homo sapiens, UniProt Q9Y5N1); experiment: Radioligand binding inhibition, Histamine H3; conditions: 10 µM; radioligand [^3H]N-methyl-histamine; mean of duplicate
T4 construct: Sekisui Medical (contract laboratory)
T4 sequence (Q9Y5N1 whole entry): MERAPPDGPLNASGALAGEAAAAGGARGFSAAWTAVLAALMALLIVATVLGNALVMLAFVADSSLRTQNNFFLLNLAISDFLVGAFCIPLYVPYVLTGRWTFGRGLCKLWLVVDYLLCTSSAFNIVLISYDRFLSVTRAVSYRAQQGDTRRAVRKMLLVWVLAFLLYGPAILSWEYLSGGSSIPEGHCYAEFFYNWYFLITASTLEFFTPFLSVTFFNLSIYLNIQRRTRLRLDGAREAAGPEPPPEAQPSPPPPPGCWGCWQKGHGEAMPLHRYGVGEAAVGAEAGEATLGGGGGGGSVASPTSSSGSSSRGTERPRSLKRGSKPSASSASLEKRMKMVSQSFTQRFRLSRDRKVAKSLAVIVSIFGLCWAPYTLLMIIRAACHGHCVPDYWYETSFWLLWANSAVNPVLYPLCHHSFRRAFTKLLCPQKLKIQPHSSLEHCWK
Experimental: as §1, §2, §3, §4, §5, §6, §7, §8

[9] = target: T5, Muscarinic M2 (Homo sapiens, UniProt P08172); experiment: Radioligand binding inhibition, Muscarinic M2; conditions: 10 µM; radioligand [^3H]AF-DX384; mean of duplicate
T5 construct: Sekisui Medical (contract laboratory)
T5 sequence (P08172 whole entry): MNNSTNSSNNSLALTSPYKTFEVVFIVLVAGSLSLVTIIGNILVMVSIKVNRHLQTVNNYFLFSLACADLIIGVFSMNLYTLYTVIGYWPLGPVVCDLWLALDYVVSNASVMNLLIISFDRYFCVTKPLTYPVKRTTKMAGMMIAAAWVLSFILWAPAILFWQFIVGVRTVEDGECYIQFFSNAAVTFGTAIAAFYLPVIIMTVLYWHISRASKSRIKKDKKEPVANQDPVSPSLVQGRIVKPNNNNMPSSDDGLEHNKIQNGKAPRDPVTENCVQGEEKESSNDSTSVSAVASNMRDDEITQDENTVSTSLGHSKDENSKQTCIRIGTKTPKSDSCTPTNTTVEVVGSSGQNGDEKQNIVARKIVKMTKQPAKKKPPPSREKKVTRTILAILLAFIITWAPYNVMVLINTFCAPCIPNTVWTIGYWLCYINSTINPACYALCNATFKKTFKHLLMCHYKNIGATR
Experimental: as §1, §2, §3, §4, §5, §6, §7, §8

[10] = test system: Nicotinic (neuronal); assay type: binding; conditions: 10 µM; radioligand [^3H]Cytisine; mean of duplicate
[11] = target: T6, Serotonin 5HT1A (Homo sapiens, UniProt P08908); experiment: Radioligand binding inhibition, Serotonin 5HT1A; conditions: 10 µM; radioligand [^3H]8-OH DPAT; mean of duplicate
T6 construct: Sekisui Medical (contract laboratory)
T6 sequence (P08908 whole entry): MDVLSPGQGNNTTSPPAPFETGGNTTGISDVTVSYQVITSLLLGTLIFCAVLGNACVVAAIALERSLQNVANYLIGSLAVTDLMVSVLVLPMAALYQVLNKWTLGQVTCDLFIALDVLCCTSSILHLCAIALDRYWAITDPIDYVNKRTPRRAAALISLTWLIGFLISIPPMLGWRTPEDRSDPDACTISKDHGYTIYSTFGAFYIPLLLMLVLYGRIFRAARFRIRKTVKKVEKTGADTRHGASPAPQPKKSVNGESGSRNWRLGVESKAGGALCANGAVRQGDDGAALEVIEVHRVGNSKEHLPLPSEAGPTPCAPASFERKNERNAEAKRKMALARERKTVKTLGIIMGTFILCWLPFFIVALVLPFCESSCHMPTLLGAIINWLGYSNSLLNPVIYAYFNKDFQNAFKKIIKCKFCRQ
Experimental: as §9, §2, §3, §4, §5, §6, §7, §8

[12] = target: T7, Serotonin 5HT3 (human) (Homo sapiens, UniProt P46098); experiment: Radioligand binding inhibition, Serotonin 5HT3; conditions: 10 µM; radioligand [^3H]GR65630; mean of duplicate
T7 construct: Sekisui Medical (contract laboratory that ran the panel)
T7 sequence (P46098 24-478): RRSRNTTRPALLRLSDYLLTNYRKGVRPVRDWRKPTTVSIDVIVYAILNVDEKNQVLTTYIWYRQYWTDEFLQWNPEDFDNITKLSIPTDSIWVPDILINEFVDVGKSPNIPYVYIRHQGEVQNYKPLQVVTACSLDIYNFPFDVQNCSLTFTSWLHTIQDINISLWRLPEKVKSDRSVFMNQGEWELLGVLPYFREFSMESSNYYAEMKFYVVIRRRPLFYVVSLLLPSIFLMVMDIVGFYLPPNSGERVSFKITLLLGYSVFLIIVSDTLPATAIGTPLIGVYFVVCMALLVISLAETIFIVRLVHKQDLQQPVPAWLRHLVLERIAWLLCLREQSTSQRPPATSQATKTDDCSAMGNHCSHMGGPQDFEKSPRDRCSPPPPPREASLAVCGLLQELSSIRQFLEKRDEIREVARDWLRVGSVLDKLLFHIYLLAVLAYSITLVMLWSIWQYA
Experimental: as §9, §2, §3, §4, §5, §6, §7, §8

[13] = test system: other brain neuroreceptors; experiment: Receptor selectivity panel, other binding sites; conditions: 10 µM; binding sites other than sigma
Experimental: as §9

[14] = test system: Sprague–Dawley rats; experiment: Acute toxicity of MMP, single intraperitoneal injection; assay type: in vivo, rat
Excerpt: (§10) The MMP was custom synthesized by the Nard Institute (Kobe, Japan) using methods described previously (Toyohara et al. [2020a]). All other chemical reagents were obtained from commercial sources. Male ddY mice were obtained from Japan SLC (Hamamatsu, Japan). Sprague–Dawley rats [Crl: CD(SD)] were obtained from […] (Yokohama, Japan). Animal studies were approved by the Animal Care and Use Committee of the Tokyo Metropolitan Institute for Geriatrics and Gerontology (Approval Nos. 22,015 and 23,007) and Nihon Bioresearch (Hashima, Japan; Approval Nos. 430,085 and 430,086). Acute toxicity studies were performed under the “Revisions of the Guidelines for Single and Repeated Dose Toxicity Studies” (PMDA, 1993). Ames test was performed under the “Guidance on Genotoxicity Testing and Data Interpretation for Pharmaceuticals Intended for Human Use” (PMDA, 2012).
In Japan, the structure of nonclinical toxicology studies for PET drugs in clinical research is the responsibility of the ethics committee of each institution or the subcommittee of specialities of PET drugs. According to the method used previously for approval of PET drugs for clinical use in our institute (Toyohara et al. [2013], [2016], [2020b]; Sakata et al. [2017]), we performed single-arm acute toxicology studies of the active pharmaceutical ingredient (MMP) and final dose formulation ([^11C]MMP injection). Mutagenicity tests will also be conducted, as there are concerns about stochastic effects on genotoxicity.
Acute toxicity studies were performed at the Hashima Research Center, Nihon Bioresearch, under non-Good Laboratory Practice (GLP) control. Acute toxicity of MMP was tested in Sprague–Dawley rats. MMP at a dose of 3.55 mg/kg body weight (0.71 mg/mL in 10 v/v% dimethyl sulfoxide containing water for injection) was injected intraperitoneally into 5-week-old rats weighing 143–172 g (male, n = 5) and 129–135 g (female, n = 5). The dose of 3.55 mg/kg body weight is the 10,000-fold equivalent of the postulated maximum administration dose (1.85 nmol/0.355 µg/kg body weight) of 740 MBq [^11C]MMP, with the lowest molar activity (Am) of 10 MBq/nmol for humans weighing 40 kg. Rats were observed frequently until 1 h and then at 2, 4, and 6 h after the injection on day 1, and thereafter once daily for 14 days for clinical signs of toxicity. Rats were weighed on days 1, 2, 4, 7, 10, and 14. At the end of the 14-day observation period, the rats were euthanized by exsanguination under isoflurane anaesthesia, and a macroscopic analysis of the autopsy samples was performed.

[15] = test system: Salmonella typhimurium (TA98, TA100, TA1535, and TA1537); experiment: Ames test (reverse bacterial mutation test), Salmonella; assay type: cell-based; conditions: with and without S9 mixture, 78.1–5000 µg/plate
Excerpt: as §10
(§11) Mutagenicity tests were performed at the Hashima Research Center, Nihon Bioresearch, under non-GLP control. MMP was tested for mutagenicity by the Ames test with four histidine-requiring strains of Salmonella typhimurium (TA98, TA100, TA1535, and TA1537) and one strain of Escherichia coli (WP2uvrA), with and without the S9 mixture, at a dose range of 78.1–5000 µg/plate according to the standard method.

[16] = test system: Escherichia coli (WP2uvrA); experiment: Ames test (reverse bacterial mutation test), E. coli; assay type: cell-based; conditions: with and without S9 mixture, 78.1–5000 µg/plate
Excerpt: as §10, §11

T1 sequence (P30542 whole entry): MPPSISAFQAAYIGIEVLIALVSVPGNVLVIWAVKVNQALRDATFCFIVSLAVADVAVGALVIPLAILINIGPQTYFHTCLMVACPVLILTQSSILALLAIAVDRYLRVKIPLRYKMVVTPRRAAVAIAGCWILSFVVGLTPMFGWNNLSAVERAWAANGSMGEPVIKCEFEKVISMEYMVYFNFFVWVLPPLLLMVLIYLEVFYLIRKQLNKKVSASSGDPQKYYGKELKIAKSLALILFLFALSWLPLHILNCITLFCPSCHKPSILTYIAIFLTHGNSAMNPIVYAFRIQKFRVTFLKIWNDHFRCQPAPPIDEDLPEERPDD

With `Cc1ccc(CC(C)NC(C)C)cc1` (stereo not drawn) [MMP, N-isopropyl-p-methylamphetamine] the “Inhibition ratio (%)” value [1] was 3.26%, the “Inhibition ratio (%)” value [2] was 44.47% and the “Inhibition ratio (%)” value [3] was 42.47%. For the same molecule, the “Inhibition ratio (%)” value [4] was 6.04%, the “Inhibition ratio (%)” value [5] was 0.00% and the “Inhibition ratio (%)” value [6] was 4.11%. For the same molecule, the “Inhibition ratio (%)” value [7] was 14.43%, the “Inhibition ratio (%)” value [8] was 3.82% and the “Inhibition ratio (%)” value [9] was 23.38%. The “Inhibition ratio (%)” value [10] was 0.00%, the “Inhibition ratio (%)” value [11] was 15.84% and the “Inhibition ratio (%)” value [12] was 0.91%. For the same molecule, the “inhibition, other brain neuroreceptors” value [13] was < 50%, the “NOAEL as multiple of postulated maximum administration dose” value ([14]; 740 MBq, Am 10 MBq/nmol, human body weight 40 kg) was 1,600 times and the acute toxicity ([14]; rats, 3.55 mg/kg body weight (10,000 times potential maximum clinical dose)) was “No acute toxicity”. For the same molecule, the body weight gain ([14]; rats, single i.p. 3.55 mg/kg) was “normal gains in body weight”, the post-mortem macroscopic examination ([14]; rats, single i.p. 3.55 mg/kg) was “no abnormalities” and the mortality ([14]; rats, single i.p. 3.55 mg/kg, 14-day observation) was “no mortality”. The “clinical signs of toxicity” value ([14]; rats, single i.p. 3.55 mg/kg, 15-day period) was “no clinical signs of toxicity”, the mutagenic activity [15] was “no mutagenic activity” and the mutagenic activity [16] was “no mutagenic activity”.
